The values below come from patent publication US20180055055A1, “FOLIAR APPLICATIONS FOR CONTROLLING LEPIDOPTERAN PESTS FOR FRUITS AND/OR FRUIT TREES” (priority 2016, published 2018).

In the experiment the test system is Grapholyta molesta. In words: Open field trial, foliar application on peach trees against Grapholyta molesta. It counts as in vivo. To be noted: timing ABC; for Alive larvae per 100 fruit / Deep holes per 100 fruit: 12 days after final application; for % control on alive larvae / % control on deep holes: Abbott equation. The text has this: Another open field trial is set up to evaluate the efficacy and selectivity of Compound A against Grapholyta molesta for peach trees (Amiga variety). The trial is designed as randomized complete block with four replications. Compound A is applied only twice (Timing A, and B), while all other treatments are applied three times (Timing A, B and C) where each application is about one week apart.
Treatments are sprayed using a mist spray multi plot equipment, designed for efficacy trials with four independent series of 8 nozzles (ALBUZ, ATR 80 Yellow) and calibrated to apply a spray volume of 1200 L/ha at a pressure of 450 Kpa. The applications target the egg lay stage of second generation at the crop growth stage of BBCH 73-75, 75-76 and 76-77 respectively for timing A, B and C. At twelve days after the final application, the efficacy assessment is carried out on 100 fruits/plot assessing the number of damaged fruits (distinct as superficial stings and deep holes) and the number of alive larvae.
Results are shown in Table 3, where data assessed are also transformed to a percentage of control using Abbott equation. Data are examined according to the Bartlett's test for homogeneity of variance. The treatment means of the assessment data are calculated and compared using Tukey's HSD test (p=0.05). In the untreated there are 18 alive larvae found in 100 fruits/plot, which represented a high infestation situation

The mark [1] stands for this setting: 680 g ai/ha, first listed formulation (Table 3 order: (1) CS 200 g ai/L).
Setting [2] is: 680 g ai/ha, second listed formulation (Table 3 order: (2) EC 225 g ai/L).
[3] abbreviates: 850 ai/ha, second listed formulation (Table 3 order: (2) EC 225 g ai/L).
[4] abbreviates: 850 g ai/ha, first listed formulation (Table 3 order: (1) CS 200 g ai/L).
The mark [5] stands for this setting: 1020 g ai/ha, first listed formulation (Table 3 order: (1) CS 200 g ai/L).
Setting [6] is: 1020 g ai/ha, second listed formulation (Table 3 order: (2) EC 225 g ai/L).

As for `CCOP(=S)(OCC)Oc1nc(Cl)c(Cl)cc1Cl` [Chlorpyriphos-Ethyl], where the note is “1080 g ai/ha, EC 480 g ai/L”, the “Alive larvae per 100 fruit” value was determined as 0.0 b per 100 fruit, the “Deep holes per 100 fruit” value was 0 b per 100 fruit, the “% control on alive larvae” value is listed as 100.0 a % and the “% control on deep holes” value was determined as 100.0 a %.

In the case of `COP(=S)(OC)Oc1nc(Cl)c(Cl)cc1Cl` [Chlorpyriphos-Methyl], the “Alive larvae per 100 fruit” value was 0.0 b per 100 fruit under setting [1]; 0.0 b per 100 fruit under setting [2]; 0.0 b per 100 fruit under setting [3]; 0.0 b per 100 fruit under setting [4]; 0.0 b per 100 fruit under setting [5]; 0.0 b per 100 fruit under setting [6]. For the same compound, the “Deep holes per 100 fruit” value is, setting by setting: under setting [1], 3 b per 100 fruit; under setting [2], 3 b per 100 fruit; under setting [3], 2 b per 100 fruit; under setting [4], 2 b per 100 fruit; under setting [5], 0 b per 100 fruit; under setting [6], 0 b per 100 fruit. The “% control on alive larvae” value runs as follows: under setting [1], 100.0 a %; under setting [2], 100.0 a %; under setting [3], 100.0 a %; under setting [4], 100.0 a %; under setting [5], 100.0 a %; under setting [6], 100.0 a %. The “% control on deep holes” value under setting [1] was found to be 81.3 c %; the “% control on deep holes” value under setting [2] is listed as 85.8 bc %; the “% control on deep holes” value under setting [3] was found to be 93.0 bc %; the “% control on deep holes” value under setting [4] is listed as 93.4 abc %; the “% control on deep holes” value under setting [5] turned out to be 100.0 a %; the “% control on deep holes” value under setting [6] was determined as 100.0 a %.
